# Patent publication US9458118B2, “Sodium channel modulators for the treatment of pain and diabetes” (CHROMOCELL CORPORATION, priority 2013, dated 2016)
# Tested on: rat
# Test: Formalin test (pain behaviors)
# Format: in vivo
# Conditions: 150 μL of 1 or 2% w/v solution, topical route
structure (smiles),measurement,value
"O=C(O)CCNCCCc1cc(Cl)ccc1Oc1cc(F)c(S(=O)(=O)Nc2ncns2)cc1Cl [Compound 12, 3-((3-(2-(4-(N-(1,2,4-thiadiazol-5-yl)sulfamoyl)-2-chloro-5-fluorophenoxy)-5-chlorophenyl)propyl)amino)propanoic acid]",reduction in pain response (formalin assay phase 2) relative to vehicle control,29-43%
same,"reduction in pain response (formalin assay, phase 1) relative to vehicle control",13-24%
